From PubChem BioAssay AID1347042

These compounds were tested on MutuI BL cells, EBV BHLF1 promoter luciferase, 48 h (assay: inducers of EBV BHLF1 promoter reporter – cell-based, MutuI Burkitt lymphoma, luciferase, dose response (AID 1347042)).

`COC(=O)c1ccccc1NC(=O)N1CCc2c([nH]c3ccc(Cl)cc23)C1c1ccc(OC)cc1` (stereo not given) and `CCOC(=O)c1ccccc1NC(=O)N1CCc2c([nH]c3ccc(OC)cc23)C1c1ccc(C)cc1` (stereo not given) are within 1.5-fold of each other in EC50: 158 nM for the first, 108 nM for the second.

Going from `COc1ccccc1NC(=O)N1CCc2c([nH]c3ccc(Cl)cc23)C1c1ccc(C)cc1` (stereo not given) to `COc1ccc(C2c3[nH]c4ccc(Cl)cc4c3CCN2C(=O)Nc2ccc(OC)cc2OC)cc1` (stereo not given), the EC50 falls from 170 nM to 113 nM (1.5-fold). The second is the more potent here.

Compound `COC(=O)c1sccc1NC(=O)N1CCc2c([nH]c3ccc(OC)cc23)C1c1ccc(C)cc1` (stereo not given) has an EC50 of 576 nM.
